# From publication PMC5724930 (Biochemistry, 2017)
# What was measured:
# PanZ [1] = biological target: T1, PanZ (Escherichia coli, UniProt P37613, R73A); assay: ITC; type: binding
# T1 construct: PanZ(R73A)
# PanZ [2] = biological target: T2, PanZ (Escherichia coli, UniProt P37613); assay: ITC; also […] Å crystal structure of the PanD–PanZ·AcCoA complex; type: binding
# T2 construct: PanZ(WT)
# T2 sequence (P37613 whole entry): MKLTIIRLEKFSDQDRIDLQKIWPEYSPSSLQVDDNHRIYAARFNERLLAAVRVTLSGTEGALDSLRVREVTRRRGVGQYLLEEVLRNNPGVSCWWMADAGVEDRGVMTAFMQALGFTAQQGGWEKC
# T1 sequence (P37613 whole entry R73A): as the sequence (P37613 whole entry) above, with R73A counted along it
compound,measurement,setting,value
CC(=O)SCCNC(=O)CCNC(=O)[C@H](O)C(C)(C)COP(=O)(O)OP(=O)(O)OC[C@H]1O[C@@H](n2cnc3c(N)ncnc32)[C@H](O)[C@@H]1OP(=O)(O)O [AcCoA],Kd,PanZ [1],220 ± 30 µM
same,Kd,PanZ [2],0.524 ± 0.064 µM
